Laboratory results published in DBAASP.
Values after ≈ are worked out from the molar mass of the structure shown. Values joined by “and” are separate entries in the source; they are usually repeats but may differ in a detail not shown here. Equal entries are not always repeated.

Key:
Assay in all cases: ≥ marks a high value that may be exact or a test limit, other limits are often not marked, values filed in µg/mL are converted to µM
[1] = tested on: Escherichia coli ATCC 25922
[2] = tested on: Staphylococcus aureus ATCC 25923
[3] = tested on: Acinetobacter baumannii ATCC 19606
[4] = tested on: Pseudomonas aeruginosa ATCC 27853
[5] = tested on: Salmonella enterica subsp. enterica serovar Typhimurium C77-31
[6] = tested on: Staphylococcus epidermidis ATCC 12228
[7] = tested on: Staphylococcus aureus ATCC 29213
[8] = tested on: Escherichia coli UB1005
[9] = tested on: Enterococcus faecalis ATCC 29212
[10] = tested on: Staphylococcus aureus NCTC 8325
[11] = tested on: Pseudomonas aeruginosa ATCC 9027
[12] = tested on: Staphylococcus aureus ATCC 6538
[13] = tested on: Candida albicans ATCC 10231

CC(C)C[C@H](NC(=O)[C@H](CC(C)C)NC(=O)[C@H](CCCCN)NC(=O)[C@H](CCCCN)NC(=O)[C@H](CC(C)C)NC(=O)[C@H](CO)NC(=O)[C@H](CCCCN)NC(=O)[C@H](CC(C)C)NC(=O)[C@@H](N)Cc1ccccc1)C(N)=O [FLKSLKKLL]
MIC [1]: 58.7 µM (≈ 63.9 µg/mL)
MIC [2]: 117 µM (≈ 128 µg/mL)
MIC [3]: > 117 µM
MIC [4]: 7.34 µM (≈ 7.99 µg/mL)

CC(C)C[C@H](NC(=O)[C@H](CCCN=C(N)N)NC(=O)[C@H](CCCCN)NC(=O)[C@H](Cc1c[nH]c2ccccc12)NC(=O)[C@@H](NC(=O)[C@H](CCCCN)NC(=O)[C@H](CCCCN)NC(=O)[C@H](CCCN=C(N)N)NC(=O)[C@H](CC(C)C)NC(=O)[C@H](CCCN=C(N)N)NC(=O)[C@@H](N)CCCN=C(N)N)[C@@H](C)O)C(=O)N[C@@H](Cc1c[nH]c2ccccc12)C(N)=O [RRLRKKTWKRLW]
MIC [5]: ≥ 64 µM
MIC [6]: 64 µM (≈ 110 µg/mL)
MIC [1]: 16 µM (≈ 27.6 µg/mL)
MIC [2]: > 128 µM
MIC [7]: 64 µM (≈ 110 µg/mL)
MIC [8]: ≥ 32 µM

CSCC[C@H](NC(=O)[C@H](CCCCN)NC(=O)[C@H](CC(C)C)NC(=O)[C@H](CC(C)C)NC(=O)[C@H](Cc1cnc[nH]1)NC(=O)[C@@H]1CCCN1C(=O)[C@H](CC(C)C)NC(=O)[C@H](CC(C)C)NC(=O)[C@H](Cc1c[nH]c2ccccc12)NC(=O)[C@H](CC(C)C)NC(=O)[C@H](CCCCN)NC(=O)[C@H](CCC(=O)O)NC(=O)CNC(=O)[C@H](C)NC(=O)[C@@H](NC(=O)[C@H](C)N)C(C)C)C(=O)N[C@@H](CC(C)C)C(=O)N[C@@H](CC(C)C)C(=O)N[C@H](C(=O)N1CCC[C@H]1C(=O)N[C@H](C(=O)N1CCC[C@H]1C(N)=O)[C@@H](C)O)[C@@H](C)O [AVAGEKLWLLPHLLKMLLTPTP]
MIC [1]: > 164 µM
MIC [2]: 164 µM (≈ 400 µg/mL)
MIC [9]: 164 µM (≈ 400 µg/mL)
MIC [3]: > 164 µM
MIC [4]: > 164 µM

CC[C@H](C)[C@H](NC(=O)[C@H](C)NC(=O)[C@H](CCC(=O)O)NC(=O)[C@H](Cc1cnc[nH]1)NC(=O)[C@H](Cc1ccccc1)NC(=O)CNC(=O)[C@H](CCC(N)=O)NC(=O)[C@H](Cc1ccccc1)NC(=O)[C@@H](NC(=O)[C@H](CCCCN)NC(=O)[C@H](CCCCN)NC(=O)[C@H](CC(C)C)NC(=O)[C@H](C)NC(=O)[C@H](CC(N)=O)NC(=O)[C@H](CC(C)C)NC(=O)CN)C(C)C)C(=O)N[C@@H](CCCCN)C(=O)N[C@@H](CC(C)C)C(=O)N[C@H](C(=O)N[C@@H](CC(N)=O)C(=O)N[C@@H](CC(N)=O)C(=O)N[C@@H](Cc1cnc[nH]1)C(=O)N[C@H](C(=O)N[C@@H](CCC(N)=O)C(=O)O)C(C)C)[C@@H](C)CC [GLNALKKVFQGFHEAIKLINNHVQ]
MIC [1]: > 80 µM
MIC [10]: ≥ 160 µM

CC[C@H](C)[C@@H]1NC(=O)[C@H](C)NC(=O)[C@@H](NC(=O)[C@H](Cc2ccccc2)NC(=O)[C@@H](NC(=O)[C@H](CCCCN)NC(=O)[C@@H]2CCCN2C(=O)[C@H](CC(C)C)NC(=O)[C@H](Cc2ccccc2)NC(=O)[C@H](CCCCN)NC(=O)[C@H](C)NC(=O)[C@H](C)NC(=O)[C@H](CCSC)NC(=O)CNC(=O)[C@H](C)NC(=O)[C@@H](NC(=O)[C@H](Cc2ccccc2)NC(=O)[C@@H]2CCCN2C(=O)[C@H](CC(C)C)NC(=O)[C@@H](N)Cc2ccccc2)[C@@H](C)CC)[C@@H](C)CC)CSSC[C@@H](C(=O)O)NC(=O)[C@H](CCCCN)NC(=O)[C@H](CCCCN)NC(=O)[C@H](CO)NC1=O [FLPFIAGMAAKFLPKIFCAISKKC]
MIC [10]: 2 µM (≈ 5.29 µg/mL)

CC[C@H](C)[C@H](NC(=O)[C@H](CCSC)NC(=O)[C@H](CO)NC(=O)CNC(=O)[C@H](Cc1ccccc1)NC(=O)[C@@H](N)Cc1ccccc1)C(=O)NCC(=O)N[C@@H](C)C(=O)N[C@@H](CC(C)C)C(=O)N[C@@H](C)C(=O)N[C@@H](CCCCN)C(=O)NCC(=O)N[C@@H](CC(C)C)C(=O)N1CCC[C@H]1C(=O)N[C@@H](CO)C(=O)N[C@@H](CC(C)C)C(=O)N[C@H](C(=O)N[C@@H](CO)C(=O)N[C@@H](CC(C)C)C(=O)N[C@H](C(=O)N[C@@H](CCCCN)C(=O)N[C@@H](CCCCN)C(N)=O)[C@@H](C)CC)[C@@H](C)CC [FFGSMIGALAKGLPSLISLIKK]
MIC [1]: 12.5 µM (≈ 28.6 µg/mL)
MIC [10]: 12.5 µM (≈ 28.6 µg/mL)

CC(C)C[C@H](NC(=O)[C@H](CCCCN)NC(=O)[C@H](CCCCN)NC(=O)[C@H](CC(C)C)NC(=O)[C@H](C)NC(=O)[C@H](CCCCN)NC(=O)[C@H](C)NC(=O)[C@H](CC(C)C)NC(=O)[C@H](CC(C)C)NC(=O)[C@H](CCCCN)NC(=O)[C@H](C)NC(=O)[C@@H](N)Cc1ccccc1)C(N)=O [FAKLLAKALKKL]
MIC [11]: 18.6 µM (≈ 25 µg/mL)
MIC [12]: 7.44 µM (≈ 9.99 µg/mL)

CC[C@H](C)[C@H](NC(=O)[C@H](CC(C)C)NC(=O)[C@H](CC(C)C)NC(=O)[C@@H]1CCCN1C(=O)[C@H](CCCCN)NC(=O)[C@H](CC(C)C)NC(=O)[C@H](CCCCN)NC(=O)[C@@H]1CCCN1C(=O)[C@H](CC(C)C)NC(=O)[C@H](CC(C)C)NC(=O)[C@H](CC(C)C)NC(=O)[C@H](CCCCN)NC(=O)[C@H](CC(C)C)NC(=O)[C@H](CC(C)C)NC(=O)[C@H](CCCCN)NC(=O)[C@@H](N)Cc1ccc(O)cc1)C(=O)N[C@@H](CCCCN)C(=O)N[C@@H](CC(C)C)C(N)=O [YKLLKLLLPKLKPLLIKL]
MIC [13]: 67.3 µM (≈ 144 µg/mL)
MIC [7]: 2.28 µM (≈ 4.9 µg/mL)
MIC [4]: 5.27 µM (≈ 11.3 µg/mL)

CC(C)C[C@H](NC(=O)[C@H](C)NC(=O)[C@H](CCCCN)NC(=O)[C@H](CCCCN)NC(=O)[C@H](Cc1ccccc1)NC(=O)[C@H](C)NC(=O)[C@H](CCCCN)NC(=O)[C@H](C)NC(=O)[C@H](Cc1ccccc1)NC(=O)[C@H](CC(C)C)NC(=O)[C@H](CCCCN)NC(=O)[C@H](C)NC(=O)[C@@H](N)Cc1ccccc1)C(N)=O [FAKLFAKAFKKAL]
MIC [11]: 135 µM (≈ 200 µg/mL)
MIC [12]: 67.4 µM (≈ 99.9 µg/mL)

CC[C@H](C)[C@H](NC(=O)[C@H](CC(C)C)NC(=O)[C@H](CO)NC(=O)[C@@H](NC(=O)[C@H](CC(C)C)NC(=O)[C@H](CO)NC(=O)[C@@H]1CCCN1C(=O)[C@H](CC(C)C)NC(=O)CNC(=O)[C@H](CCCCN)NC(=O)[C@H](C)NC(=O)[C@H](CC(C)C)NC(=O)[C@H](C)NC(=O)CNC(=O)[C@@H](NC(=O)[C@@H](NC(=O)[C@H](CO)NC(=O)CNC(=O)[C@H](Cc1ccccc1)NC(=O)[C@@H](N)Cc1ccccc1)[C@@H](C)CC)[C@@H](C)CC)[C@@H](C)CC)C(=O)N[C@@H](CCCCN)C(=O)N[C@@H](CCCCN)C(N)=O [FFGSIIGALAKGLPSLISLIKK]
MIC [1]: 6 µM (≈ 13.6 µg/mL)
MIC [10]: 12.5 µM (≈ 28.4 µg/mL)

CC(C)C[C@H](NC(=O)[C@H](C)NC(=O)[C@H](CCCCN)NC(=O)[C@H](CCCCN)NC(=O)[C@H](CC(C)C)NC(=O)[C@H](Cc1ccccc1)NC(=O)[C@H](CCCCN)NC(=O)[C@H](C)NC(=O)[C@H](CC(C)C)NC(=O)[C@H](CC(C)C)NC(=O)[C@H](CCCCN)NC(=O)[C@H](C)NC(=O)[C@@H](N)Cc1ccccc1)C(N)=O [FAKLLAKFLKKAL]
MIC [11]: 134 µM (≈ 200 µg/mL)
MIC [12]: 6.71 µM (≈ 9.99 µg/mL)

CC[C@H](C)[C@H](NC(=O)[C@H](Cc1c[nH]c2ccccc12)NC(=O)[C@H](CCCCN)NC(=O)[C@H](CC(C)C)NC(=O)[C@@H](NC(=O)[C@H](CCCCN)NC(=O)CNC(=O)[C@@H](NC(=O)[C@H](CCCCN)NC(=O)[C@H](CCCCN)NC(=O)[C@H](CC(C)C)NC(=O)[C@H](CCCN=C(N)N)NC(=O)[C@H](CCCCN)NC(=O)[C@H](CCCN=C(N)N)NC(=O)[C@@H](NC(=O)[C@H](CCCCN)NC(=O)[C@H](CCCCN)NC(=O)[C@H](CCCN=C(N)N)NC(=O)[C@H](CC(C)C)NC(=O)[C@H](CCCN=C(N)N)NC(=O)[C@H](CCCN=C(N)N)NC(=O)[C@H](Cc1ccccc1)NC(=O)[C@H](CCCN=C(N)N)NC(=O)CN)[C@@H](C)O)[C@@H](C)CC)C(C)C)C(N)=O [GRFRRLRKKTRKRLKKIGKVLKWI]
MIC [5]: 1 µM (≈ 3.06 µg/mL)
MIC [6]: 2 µM (≈ 6.13 µg/mL)
MIC [1]: 1 µM and 2 µM
MIC [2]: 4 µM (≈ 12.3 µg/mL)
MIC [7]: 2 µM (≈ 6.13 µg/mL)
MIC [8]: 2 µM (≈ 6.13 µg/mL)
